Test [1] concerns the target T1, sRAGE binding to β-amyloid (Homo sapiens, UniProt Q15109).
T1 construct: extracellular domain can be isolated by proteolysis of RAGE to generate soluble RAGE (sRAGE) comprised of the V and C domains
Nature of the test: RAGE binding assay (ELISA), β-amyloid as the RAGE ligand. The settings on record: compounds tested in hydrochloride salt form, concentration at which 50% signal has been inhibited. The protocol: (§1) The following assay method may be used to identify compounds of Formula (I) or pharmaceutically acceptable salts thereof which are useful as inhibitors of binding of physiological RAGE ligands, such as S100b and β-amyloid, to RAGE.
(§2) S100b, β-amyloid, or CML (500 ng/100 μL/well) in 100 mM sodium bicarbonate/sodium carbonate buffer (pH 9.8) is loaded onto the wells of a NUNC Maxisorp flat bottom 96-well microtitre plate. The plate is incubated at 4° C. overnight. The wells are aspirated and treated with 50 mM imidazole buffer saline (pH 7.2) (with 5 mM CaCl2/MgCl2) containing 1% bovine serum albumin (BSA) (300 μL/well) for 1 h at RT. The wells are aspirated.
(§3) Test compounds are dissolved in nanopure water (concentration: 10-100 μM). DMSO may be used as co-solvent. 25 μL of test compound solution in 4% DMSO is added, along with 75 μL sRAGE (6 nM FAC) to each well and samples are incubated for 1 h at 37° C. The wells are washed several times with 155 mM NaCl pH 7.2 buffer saline and are soaked for several seconds between each wash.
(§4) Non-radioactive detection is performed by adding:
(§5) 10 μL Biotinylated goat F(ab′)2 Anti-mouse IgG. (8.0×10-4 mg/mL, FAC), 5 μL Alk-phos-Streptavidin (3×10-3 mg/mL FAC), 0.42 μL per 5 mL Monoclonal antibody for sRAGE (FAC 6.0×10-3 mg/mL) to 5 mL 50 mM imidazole buffer saline (pH 7.2) containing 0.2% bovine serum albumin and 5 mM CaCl2. The mixture is incubated for 30 minutes at RT.
(§6) 100 μL of complex is added to each well and incubation is allowed to proceed at rt for 1 h. Wells are washed several times with wash buffer and soaked several seconds between each wash. 100 μL 1 mg/mL (pNPP) in 1 M diethanolamine (pH adjusted to 9.8 with HCl) is added. Color is allowed to develop in the dark for 30 min to 1 h at rt. The reaction is quenched with 10 μL of stop solution (0.5-1.0 N NaOH in 50% ethanol) and the absorbance is measured spectrophotometrically with a microplate reader at 405 nm.
(§7) The IC50 (μM) value in the ELISA assay represents the concentration of compound at which 50% signal has been inhibited.

For a further test, the target named is T2, sRAGE binding to S100b (Homo sapiens, UniProt Q15109).
T2 construct: extracellular domain can be isolated by proteolysis of RAGE to generate soluble RAGE (sRAGE) comprised of the V and C domains
Nature of the test: RAGE binding assay (ELISA), S100b as the RAGE ligand. The settings on record: compounds tested in hydrochloride salt form, concentration at which 50% signal has been inhibited. The protocol: as §1, §2, §3, §4, §5, §6, §7
(In general: ELISA stands for enzyme-linked immunosorbent assay.)

pIC50: −log10 of the molar value. Where a name gives a salt, the structure may show the parent alone.

T1 sequence (Q15109 23-342 limits assumed): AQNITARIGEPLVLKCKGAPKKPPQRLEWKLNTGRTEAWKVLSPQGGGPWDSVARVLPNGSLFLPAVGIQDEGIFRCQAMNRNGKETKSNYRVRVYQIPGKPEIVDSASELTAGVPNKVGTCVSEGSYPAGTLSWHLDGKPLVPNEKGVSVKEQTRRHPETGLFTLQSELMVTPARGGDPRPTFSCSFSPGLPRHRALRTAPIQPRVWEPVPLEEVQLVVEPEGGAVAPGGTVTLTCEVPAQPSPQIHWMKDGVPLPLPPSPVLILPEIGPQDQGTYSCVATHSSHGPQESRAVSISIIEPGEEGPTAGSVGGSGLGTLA
T2 sequence (Q15109 23-342 limits assumed): as above

In the case of `CCCCc1nnc(OC2CCN(C)CC2CO)cc1-c1ccc(OC2CCCCC2)cc1` (centres unmarked) [Example 38, {4-[6-Butyl-5-(4-cyclohexyloxy-phenyl)-pyridazin-3-yloxy]-1-methyl-piperidin-3-yl}-methanol dihydrochloride], the pIC50 – broadly, the negative decadic logarithm of the IC50, by convention in mol/L – in test [1] was 5.61; on sRAGE binding to S100b, 5.58.

Consider `CCCCc1nnc(OCC2CN(C)CCC2(F)F)cc1-c1ccc(OC2CCCCC2)cc1` (centres unmarked) [Example 39, 3-Butyl-4-(4-cyclohexyloxy-phenyl)-6-(4,4-difluoro-1-methyl-piperidin-3-ylmethoxy)-pyridazine dihydrochloride], for which the values for the pIC50 (in test [1]; on sRAGE binding to S100b) were 5.82 and 5.91, respectively.

In the case of `CCCCc1c(-c2ccc(OC3CCCCC3)cc2)cc(OC2CCN(C)CC2)n[n+]1[O-]` [Example 40, 3-Butyl-4-(4-cyclohexyloxy-phenyl)-6-(1-methyl-piperidin-4-yloxy)-pyridazine 2-oxide hydrochloride], the pIC50 in test [1] is 5.66; on sRAGE binding to S100b, 5.53.

Regarding `CCCCc1nnc(OCC2(F)CCN(C)CC2)cc1-c1ccc(OC2CCCCC2)cc1` [Example 45, 3-Butyl-4-(4-cyclohexyloxy-phenyl)-6-(4-fluoro-1-methyl-piperidin-4-ylmethoxy)-pyridazine dihydrochloride], the pIC50 in test [1] is 6.30; at sRAGE binding to S100b, 5.94.

As for `CCCCc1nnc(OC2CCN(C)CC2)cc1-c1ccc(OC(C)C)cc1` [Example 49, 3-Butyl-4-(4-isopropoxy-phenyl)-6-(1-methyl-piperidin-4-yloxy)-pyridazine dihydrochloride], the pIC50 was 5.20 in test [1] and 5.40 at sRAGE binding to S100b.

`CCCCc1nnc(OC2CCN(C)CC2)cc1-c1ccc(OCc2ccc(Cl)cc2)cc1` [Example 50, 3-butyl-4-[4-(4-chloro-benzyloxy)-phenyl]-6-(1-methyl-piperidin-4-yloxy)-pyridazine dihydrochloride]: the pIC50 is 5.71 in test [1] and 5.85 on sRAGE binding to S100b.

With `CCCCc1nnc(OC2CCN(C)CC2)cc1-c1ccc(OC2CCCC2)cc1` [Example 51, 3-butyl-4-(4-cyclopentyloxy-phenyl)-6-(1-methyl-piperidin-4-yloxy)-pyridazine dihydrochloride], the values for the pIC50 (in test [1]; at sRAGE binding to S100b) were 5.58 and 5.53, respectively.

Take `CCCCc1nnc(OC2CCN(C)CC2)cc1-c1ccc(OCCC2CCCCC2)cc1` [Example 52, 3-butyl-4-[4-(2-cyclohexyl-ethoxy)-phenyl]-6-(1-methyl-piperidin-4-yloxy)-pyridazine dihydrochloride]: the pIC50 in test [1] is 6.16; at sRAGE binding to S100b, 6.19.

Consider `CCCCc1nnc(OC2CCN(C)CC2)cc1-c1ccc(OCc2cccnn2)cc1` [Example 53, 3-butyl-6-(1-methyl-piperidin-4-yloxy)-4-[4-(pyridazin-3-ylmethoxy)-phenyl]-pyridazine trihydrochloride], for which the pIC50 is 5.69 in test [1] and 5.60 at sRAGE binding to S100b.

In the case of `CCCCc1nnc(OC2CCN(C)CC2)cc1-c1ccc(OCC2CCOCC2)cc1` [Example 54, 3-butyl-6-(1-methyl-piperidin-4-yloxy)-4-[4-(tetrahydro-pyran-4-ylmethoxy)-phenyl]-pyridazine dihydrochloride], the results for the pIC50 (in test [1]; at sRAGE binding to S100b) were 5.26 and 5.44, respectively.

Turning to `CCCCc1nnc(OC2CCN(C)CC2)cc1-c1ccc(OCC2CCN(C(C)=O)CC2)cc1` [Example 55, 1-(4-{4-[3-butyl-6-(1-methyl-piperidin-4-yloxy)-pyridazin-4-yl]-phenoxymethyl}-piperidin-1-yl)-ethanone dihydrochloride], the pIC50 in test [1] is 5.04; on sRAGE binding to S100b it was 5.43.

With `CCCCc1nnc(OC2CCN(C)CC2)cc1-c1ccc(OCC2CCC(C(=O)N(C)C)CC2)cc1` (centres unmarked) [Example 56, 4-{4-[3-butyl-6-(1-methyl-piperidin-4-yloxy)-pyridazin-4-yl]-phenoxymethyl}-cyclohexanecarboxylic acid dimethylamide dihydrochloride], the pIC50 in test [1] was 5.61; at sRAGE binding to S100b, 5.74.

Turning to `CCCCc1nnc(OC2CCN(C)CC2)cc1-c1ccc(Oc2ccc(C)nn2)cc1` [Example 57, 3-butyl-6-(1-methyl-piperidin-4-yloxy)-4-[4-(6-methyl-pyridazin-3-yloxy)-phenyl]-pyridazine trihydrochloride], the figures for the pIC50 (in test [1]; at sRAGE binding to S100b) were 5.34 and 5.49, respectively.

For `CCCCc1nnc(OC2CCN(C)CC2)c(C(F)(F)F)c1-c1ccc(OC2CCCCC2)cc1` [Example 58, 3-butyl-4-(4-cyclohexyloxy-phenyl)-6-(1-methyl-piperidin-4-yloxy)-5-trifluoromethyl-pyridazine dihydrochloride], the pIC50 in test [1] is 6.12; on sRAGE binding to S100b, 6.13.

With `CN1CCC(Oc2cc(-c3ccc(OC4CCCCC4)cc3)c(C3CC3)nn2)CC1` [Example 59, 4-(4-cyclohexyloxy-phenyl)-3-cyclopropyl-6-(1-methyl-piperidin-4-yloxy)-pyridazine dihydrochloride], the pIC50 in test [1] is 5.50; at sRAGE binding to S100b, 5.32.

As for `CN1CCC(Oc2cc(-c3ccc(OC4CCCCC4)cc3)c(C3CCCCC3)nn2)CC1` [Example 60, 3-cyclohexyl-4-(4-cyclohexyloxy-phenyl)-6-(1-methyl-piperidin-4-yloxy)-pyridazine dihydrochloride], the pIC50 in test [1] was 5.74; on sRAGE binding to S100b it was 5.95.

On to `CN1CCC(Oc2cc(-c3ccc(OC4CCCCC4)cc3)c(C3CCC3)nn2)CC1` [Example 61, 3-cyclobutyl-4-(4-cyclohexyloxy-phenyl)-6-(1-methyl-piperidin-4-yloxy)-pyridazine dihydrochloride], for which the results for the pIC50 (in test [1]; at sRAGE binding to S100b) were 5.43 and 5.47, respectively.

Take `CCCCc1nnc(OC2CCN(C)CC2)cc1-c1ccc(OC2CCCCC2)c(NC(C)=O)c1` [Example 62, N-{5-[3-butyl-6-(1-methyl-piperidin-4-yloxy)-pyridazin-4-yl]-2-cyclohexyloxy-phenyl}-acetamide dihydrochloride]: the pIC50 in test [1] is 5.30; on sRAGE binding to S100b, 5.44.

With `CCCCc1nnc(OC2CCN(C)CC2)cc1-c1ccc(OC2CCCCC2)c(N(CC(C)C)C(C)=O)c1` [Example 63, N-{5-[3-butyl-6-(1-methyl-piperidin-4-yloxy)-pyridazin-4-yl]-2-cyclohexyloxy-phenyl}-N-isobutyl-acetamide dihydrochloride], the negative logarithm of the IC50 (pIC50) is 6.17 in test [1] and 6.08 on sRAGE binding to S100b.

Turning to `CCCCc1nnc(OC2CCN(C)CC2)cc1-c1ccc(OC2CCCCC2)c(N(CC(C)C)S(C)(=O)=O)c1` [Example 64, N-{5-[3-butyl-6-(1-methyl-piperidin-4-yloxy)-pyridazin-4-yl]-2-cyclohexyloxy-phenyl}-N-isobutyl-methanesulfonamide dihydrochloride], the pIC50 is 6.08 in test [1] and 6.06 on sRAGE binding to S100b.

With `CCCCc1nnc(OC2CCN(C)CC2)cc1-c1ccc(OC2CCCCC2)c(-c2ncco2)c1` [Example 65, 3-Butyl-4-(4-cyclohexyloxy-3-oxazol-2-yl-phenyl)-6-(1-methyl-piperidin-4-yloxy)-pyridazine dihydrochloride salt], the pIC50 is 5.75 in test [1] and 5.67 on sRAGE binding to S100b.

In the case of `CCCCc1nnc(OC2CCN(C)CC2)cc1-c1ccc(OC2CCCCC2)c(C(C)=O)c1` [Example 66, 1-{5-[3-Butyl-6-(1-methyl-piperidin-4-yloxy)-pyridazin-4-yl]-2-cyclohexyloxy-phenyl}-ethanone], the figures for the pIC50 (in test [1]; on sRAGE binding to S100b) were 5.74 and 5.83, respectively.

These data come from patent US9045461B2, “Phenyl-heteroaryl derivatives and methods of use thereof” (TransTech Pharma, LLC, priority 2010, dated 2015).
